Laboratory results as given in PubChem BioAssay (NCI).
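How tested: cells in 96-well plates exposed to compound for 48 hours at five concentrations. Definition used: TGI = concentration required for complete inhibition of growth.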

Tests used:
Assay in all cases: NCI-60 cell line screen, 48 h
OVCAR-3 ovarian = test system: OVCAR-3 ovarian
786-0 renal = test system: 786-0 renal
CAKI-1 renal = test system: CAKI-1 renal
A549 NSCLC = test system: A549 NSCLC
SF-539 CNS = test system: SF-539 CNS
U251 CNS = test system: U251 CNS
HCC-2998 colon = test system: HCC-2998 colon
MCF7 breast = test system: MCF7 breast
SNB-75 CNS = test system: SNB-75 CNS
HT29 colon = test system: HT29 colon

Row | SMILES | TGI (OVCAR-3 ovarian) [µM] | TGI (786-0 renal) [µM] | TGI (CAKI-1 renal) [µM] | TGI (A549 NSCLC) [µM] | TGI (SF-539 CNS) [µM] | TGI (U251 CNS) [µM] | TGI (HCC-2998 colon) [µM] | TGI (MCF7 breast) [µM] | TGI (SNB-75 CNS) [µM] | TGI (HT29 colon) [µM]
1 | CCOC(=O)c1c(N2CCOCC2)[nH]c(=O)c(C(c2cccs2)c2c(O)c(C(=O)OCC)c(N3CCOCC3)[nH]c2=O)c1O | > 100 | > 100 | > 100 | > 100 | > 100 | > 100 | > 100 | > 100 | > 100 | > 100
2 | CCN1CCCC(Nc2cc(C)nc(/N=C(/N)Nc3ccc(Cl)c(Cl)c3)n2)C1 (stereo not given) | 3.59 | 2.95 | 3.1 | 4.22 | 3.66 | 2.6 | 1.89 | 3.59 | 2.71 | 15.7
3 | CNC(=S)N/N=C(\C)c1nc2ncccc2[nH]1 | 75.5 | > 100 | 99.1 | > 100 | > 100 | > 100 | > 100 | > 100 | > 100 | > 100
4 | COc1ccc(/C(=N/Nc2nc3ccccc3[nH]2)C(=O)O)cc1 | > 100 | > 100 | > 100 | > 100 | > 100 | > 100 | > 100 | > 100 | > 100 | > 100
5 | CSc1ncc2c(n1)-c1ccccc1OC2NC(C)(C)C (stereo not given) | > 100 | > 100 | > 100 | > 100 | > 100 | > 100 | 87 | > 100 | 88.1 | > 100
6 | N#Cc1c(Nc2nc3ccccc3s2)c2ccccc2n2c1nc1ccccc12 | > 100 | > 100 | > 100 | > 100 | > 100 | > 100 | > 100 | > 100 | 81 | > 100
7 | c1csc(-c2csc(-c3ccsc3)c2)c1 | > 100 | > 100 | > 100 | > 100 | 98.6 | > 100 | > 100 | > 71.4 | > 100 | > 100
8 | CC1(C)CCCCCCCCCC(C)(CCCCCCCCCCCCO)C1=O (stereo not given) | 29.4 | 32.6 | 41.5 | 29.9 | 32.5 | 33 | 13.7 | 30.5 | 29.7 | 31
9 | COc1ccc2c(c1OC)C(=O)O[C@@H]2[C@H]1c2cc3c(cc2CCN1C)OCO3 | > 100 | > 100 | > 100 | > 100 | > 100 | > 100 | > 100 | > 100 | > 100 | > 100
10 | COc1cc(OC)c2c(O)c(S(=O)(=O)c3ccc(C)cc3)c(=O)oc2c1 | > 100 | > 100 | > 100 | > 100 | > 100 | > 100 | > 100 | > 100 | > 100 | > 100
